Data on six molecules can be found in EP0676201B1, “Use of a riminophenazine for treating MDR resistance” (priority 1994, dated 1995).

Values after ≈ are worked out from the molar mass of the structure shown. Like-named read-outs stand apart in the source and are kept apart here.

Test [1] relates to H69/LX4. Put plainly: [14C]-vinblastine accumulation in MDR cell line (Example 2). To be noted: 1 hour pretreatment; 250 µg/mℓ [14C]-vinblastine for 30 minutes. The test is classed as cell-based, human. On the procedure: The effect of riminophenazines on the accumulation of [^14C]-vinblastine was investigated. For these experiments, both of the above cell lines (H69/LX4 and H69/P) were prepared as described by Coley et al (Biochem. Pharmacal 38, 4467-4475 (1989)). After a 1 hour pretreatment with the MDR reversal agents, cells (1 x 10^6/mℓ) were exposed to 250 µg/mℓ [^14C]-vinblastine (1 µCi specific activity) for 30 minutes. […] The results are illustrated in Figure 3 of the accompanying drawings.

The test system of a further test is K562/MMB. Put plainly: MTT assay, 7-day exposure to riminophenazines alone or with fixed doxorubicin or vinblastine (Example 4). It is filed as cell-based. As to conditions: Homo sapiens, K562, 168 h.
For test [2], the system named is H69/LX4. Put plainly: MTT assay, 7-day exposure to riminophenazines alone or with fixed doxorubicin or vinblastine (Example 3). To be noted: Homo sapiens, 168 h, read-out: cytotoxic activity: concentrations at which cytotoxic. A general note: Formazan colour is commonly taken as a measure of viable cells.
Method: The effects were examined of a 7-day exposure of selected compounds on the sensitivity of the cell line (H69/P) and the resistance cell line (H69/LX4) to the standard chemotherapeutic agents doxorubicin and vinblastine, using the MTT assay.
After incubation at 37°C for 7 days, 20 µℓ MTT (ie 3-[4,5-dimethylthiazol-2-yl]-2,5-diphenyl-tetrazolium bromide) at 5 mg/ml was added to each well and the plates incubated for a further 4 hours. The cells were washed with phosphate buffered saline and the intracellular formazan crystals solubilized with dimethylsulphoxide, and the absorbence measured spectrophotometrically at a test wavelength of 540 nm and a reference wavelength of 620 nm. The mean percentage inhibition ± SEM of four experiments using the relevant controls was taken.
The test system of the next test is H69/P. Put plainly: MTT assay, 7-day exposure: sensitivity of parent cells to chemotherapeutic agents with or without MDR inhibitor (Example 1). It is filed as cell-based, human. As to conditions: for fold sensitivity compared with the chemotherapeutic agent without the MDR inhibitor, B669 / fold sensitivity compared with the chemotherapeutic agent without the MDR inhibitor, Clofazimine (B663) / fold sensitivity compared with the chemotherapeutic agent without the MDR inhibitor, CsA: value in parenthesis; for fold sensitivity compared with the chemotherapeutic agent without the MDR inhibitor, CsA: with CsA 5 µg/ml; for IC50: Homo sapiens, 168 h. From the text:
(§1) A further test using no MDR inhibitor was used as a standard.

For test [3], the system named is H69/LX4. Put plainly: MTT assay, 7-day exposure: sensitivity of resistant (MDR) cells to chemotherapeutic agents with or without MDR inhibitor (Example 1). The test is classed as cell-based. To be noted: Homo sapiens, 168 h.
From the text: as §1
The cell lines used were human small cell lung cancer cell line HP69/P and a multi-drug resistant (MDR) sub-line H69/LX4, both of which were supplied by the MRC Clinical Oncology and Radiotherapeutics Unit, Hills Road, Cambridge, England. The maintenance of the cell lines and drug response assays was done as described by Twentyman et al in British Journal of Cancer Volume 65 pages 335-340. The H69/LX4 line was originally described by Twentyman et al in British Journal of Cancer Volume 53, pages 529-637 (1986).
The data in parenthesis represents fold sensitivity compared with the chemotherapeutic agent without the MDR inhibitor.

[4] abbreviates: in the presence of doxorubicin (12 ng/ml), read-out: IC 50 of riminophenazine, Doxorubicin.
Setting [5] is: in the presence of vinblastine (3 ng/ml), read-out: IC 50 of riminophenazine, Vinblastine.
[6] abbreviates: riminophenazine alone, mean of 2 experiments, read-out: IC 50 of riminophenazine, None.
Where [7] appears, read: H69/P, with Clofazimine 1 µg/ml.
Setting [8] is: read-out: IC50 of chemotherapeutic agent, MDR INHIBITOR CsA.
[9] abbreviates: H69/P, no MDR inhibitor, 7 day exposure, mean of 2 - 4 experiments, read-out: IC50 of chemotherapeutic agent, MDR INHIBITOR None.
Where [10] appears, read: H69/P, with B669 0.5 µg/ml, 7 day exposure, read-out: IC50 of chemotherapeutic agent, MDR INHIBITOR B669.
Where [11] appears, read: H69/P, with Clofazimine 1 µg/ml, 7 day exposure, read-out: IC50 of chemotherapeutic agent, MDR INHIBITOR Clofazimine (B663).
The mark [12] stands for this setting: H69/LX4, no MDR inhibitor, 7 day exposure, mean of 2 - 4 experiments, read-out: IC50 of chemotherapeutic agent, MDR INHIBITOR None.
The mark [13] stands for this setting: H69/LX4, with B669 0.5 µg/ml, 7 day exposure, read-out: IC50 of chemotherapeutic agent, MDR INHIBITOR B669.
The mark [14] stands for this setting: H69/LX4, with Clofazimine 1 µg/ml, 7 day exposure, read-out: IC50 of chemotherapeutic agent, MDR INHIBITOR Clofazimine (B663).

From the text for K562/MMB: A third cell line (562/MMB) used was a MDR leukemia cell line selected in vitro by progressive exposure to increasing concentrations of vinblastine in order to increase P-glycoprotein expression. […] This cell line expresses high levels of P-glycoprotein as determined by flowcytometry using the monoclonal antibody (MRK 16) against this molecule.
The effects were examined of a 7-day exposure of selected compounds on the sensitivity of the cell line (K562/MMB) to the standard chemotherapeutic agents doxorubicin and vinblastine, using the MTT assay.
The cells were seeded at 1 x 10^4 cells per well in 96 well microlitre plates in a volume of 200 µl of RPMI 1640 medium containing 10 % fetal calf serum and incubated with doxorubicin (12.5 ng/ml) or vinblastine (3 ng/ml). The amounts of MDR modulators used were 0.03, 0.06, 0.125, 0.5, 1.0 and 2.0 µg/ml.
After incubation at 37 °C for 7 days, 20 µl MTT (i.e. 3-[4,5-dimethylthiazol-2-yl]2,5-diphenyl-tetrazolium bromide) at 5 mg/ml was added to each well and the plates incubated for a further 4 hours. The cells were washed with phosphate buffered saline and the intracellular formazan crystals solubilized with dimethylsulphoxide, and the absorbency measured spectrophotometrically at a test wavelength of 540 nm and a reference wavelength of 620 nm.

On to `CC(C)N=c1cc2n(-c3ccc(Cl)cc3)c3ccccc3nc-2cc1Nc1ccc(Cl)cc1` [Compound B663, N,5-bis-(4-chlorophenyl)-3,5-dihydro-3-[(1-methylethyl)imino]-2-phenazinamine], for which the “vinblastine accumulation in the MDR cell line (H69/LX4)” value in the test on H69/LX4 [1] is “significant enhancement”. The IC50 with K562/MMB (setting [4]) is 0.135 µg/mL; in the test with K562/MMB (setting [5]) it was below 0.05 µg/mL; in the test on K562/MMB (setting [6]), 0.225 µg/mL (≈ 0.475 µM).
On to `c1ccc(Nc2cc3nc4ccccc4n(-c4ccccc4)c-3cc2=NC2CCCCC2)cc1` [Compound B669], for which the “vinblastine accumulation in the MDR cell line (H69/LX4)” value in the test with H69/LX4 [1] was “significant enhancement”. In addition, the IC50 in the test on K562/MMB (setting [4]) was 0.069 µg/mL; with K562/MMB (setting [6]), 0.139 µg/mL (≈ 0.313 µM).
Regarding `CC1(C)CC(N=c2cc3n(-c4cc(Cl)c(Cl)c(Cl)c4)c4ccccc4nc-3cc2Nc2cc(Cl)c(Cl)c(Cl)c2)CC(C)(C)N1` [Compound B4169, N,5-bis(3,4,5-trichlorophenyl)-3,5-dihydro-3[(2',2',6',6'-tetramethyl-4-piperidyl)-imino]-2-phenazinamine], the IC50 with K562/MMB (setting [4]) was determined as 0.969 µg/mL; in the test with K562/MMB (setting [5]), 0.116 µg/mL; in the test with K562/MMB (setting [6]), 2.86 µg/mL (≈ 4.04 µM). In the test with H69/LX4 [2], the MCC was above 12.5 µg/mL.
Take `CN(Cc1cnc2nc(N)nc(N)c2n1)c1ccc(C(=O)N[C@@H](CCC(=O)O)C(=O)O)cc1` [Methotrexate]: the “fold sensitivity compared with the chemotherapeutic agent without the MDR inhibitor, B669” value in the test with H69/P (H69/P, with B669 0.5 µg/ml) came out at 1.0 fold. Besides, the “fold sensitivity compared with the chemotherapeutic agent without the MDR inhibitor, Clofazimine (B663)” value with H69/P (setting [7]) amounted to 0.9 fold. Besides, the “fold sensitivity compared with the chemotherapeutic agent without the MDR inhibitor, CsA” value in the test on H69/P (H69/P) came out at 1.5 fold. Also, the IC50 in the test on H69/P (setting [8]) worked out at 2.4 µg/mL (≈ 5.28 µM); in the test with H69/P (setting [9]), 3.5 µg/mL (≈ 7.7 µM); with H69/P (setting [10]) it was 3.4 µg/mL (≈ 7.48 µM); in the test with H69/P (setting [11]) it was 3.7 µg/mL (≈ 8.14 µM); in the test with H69/LX4 [3] (setting [8]), 4.6 µg/mL (≈ 10.1 µM); with H69/LX4 [3] (setting [12]), 3.2 µg/mL (≈ 7.04 µM). The figures for the IC50 in the test with H69/LX4 [3] (setting [13]) and in the test on H69/LX4 [3] (setting [14]) were 3.5 µg/mL (≈ 7.7 µM) and 4.4 µg/mL (≈ 9.68 µM), respectively.
With `CO[C@@]12[C@H](COC(N)=O)C3=C(C(=O)C(C)=C(N)C3=O)N1C[C@@H]1N[C@@H]12` [Mitomycin C], the IC50 was found to be 0.01 µg/mL (≈ 0.0299 µM) in the test on H69/P (read-out: IC50 of chemotherapeutic agent, MDR INHIBITOR B669); 0.01 µg/mL (≈ 0.0299 µM) in the test on H69/P (read-out: IC50 of chemotherapeutic agent, MDR INHIBITOR Clofazimine (B663)); 0.009 µg/mL (≈ 0.0269 µM) with H69/P (setting [8]); 0.08 µg/mL (≈ 0.239 µM) in the test on H69/LX4 [3] (setting [8]); 0.04 µg/mL (≈ 0.12 µM) in the test with H69/LX4 [3] (setting [13]); 0.06 µg/mL (≈ 0.179 µM) in the test with H69/LX4 [3] (setting [14]).
For the molecule `CC[C@]1(O)C[C@@H]2CN(CCc3c([nH]c4ccccc34)[C@@](C(=O)OC)(c3cc4c(cc3OC)N(C)[C@H]3[C@@](O)(C(=O)OC)[C@H](OC(C)=O)[C@]5(CC)C=CCN6CC[C@]43[C@@H]65)C2)C1` [Vinblastine], the “fold sensitivity compared with the chemotherapeutic agent without the MDR inhibitor, B669” value with H69/P (H69/P, with B669 0.5 µg/ml) was 1.1 fold. Also, in the test with H69/P (setting [7]), the “fold sensitivity compared with the chemotherapeutic agent without the MDR inhibitor, Clofazimine (B663)” value is listed as 1.3 fold. The “fold sensitivity compared with the chemotherapeutic agent without the MDR inhibitor, CsA” value with H69/P (H69/P) worked out at 1.4 fold. The IC50 was found to be 0.0007 µg/mL (≈ 0.000863 µM) in the test with H69/P (setting [8]); 0.001 µg/mL (≈ 0.00123 µM) with H69/P (setting [9]); 0.0009 µg/mL (≈ 0.00111 µM) in the test with H69/P (setting [10]); 0.0008 µg/mL (≈ 0.000986 µM) in the test on H69/P (setting [11]); 0.008 µg/mL (≈ 0.00986 µM) in the test on H69/LX4 [3] (setting [8]); 0.12 µg/mL (≈ 0.148 µM) with H69/LX4 [3] (setting [12]). Moreover, the IC50 with H69/LX4 [3] (setting [13]) and in the test with H69/LX4 [3] (setting [14]) was 0.008 µg/mL (≈ 0.00986 µM) throughout.
